According to ChEMBL document CHEMBL5291721, “A preclinical secondary pharmacology resource illuminates target-adverse drug reaction associations of marketed drugs” (Nat Commun, 2023):

Tests used:
[1] = molecular target: Sodium-dependent dopamine transporter (Homo sapiens, UniProt Q01959)
[2] = molecular target: 3',5'-cyclic-AMP phosphodiesterase 4D (Homo sapiens, UniProt Q08499); format: functional
[3] = molecular target: T1, Alpha-2A adrenergic receptor (Homo sapiens, UniProt P08913); format: functional, cell-based
T1 sequence (P08913 whole entry): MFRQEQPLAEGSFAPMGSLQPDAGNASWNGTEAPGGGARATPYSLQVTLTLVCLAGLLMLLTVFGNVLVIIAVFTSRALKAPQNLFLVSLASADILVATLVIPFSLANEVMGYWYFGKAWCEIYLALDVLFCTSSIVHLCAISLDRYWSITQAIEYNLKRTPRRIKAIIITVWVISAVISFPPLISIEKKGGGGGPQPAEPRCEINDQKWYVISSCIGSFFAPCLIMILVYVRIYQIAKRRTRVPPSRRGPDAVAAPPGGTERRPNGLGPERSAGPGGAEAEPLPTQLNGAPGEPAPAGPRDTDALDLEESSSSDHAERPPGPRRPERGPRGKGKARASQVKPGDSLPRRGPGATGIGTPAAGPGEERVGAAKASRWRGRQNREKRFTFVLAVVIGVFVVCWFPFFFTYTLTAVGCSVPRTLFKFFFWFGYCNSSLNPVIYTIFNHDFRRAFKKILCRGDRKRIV

[4] = molecular target: T2, Progesterone receptor (Homo sapiens, UniProt P06401); format: functional
T2 sequence (P06401 whole entry): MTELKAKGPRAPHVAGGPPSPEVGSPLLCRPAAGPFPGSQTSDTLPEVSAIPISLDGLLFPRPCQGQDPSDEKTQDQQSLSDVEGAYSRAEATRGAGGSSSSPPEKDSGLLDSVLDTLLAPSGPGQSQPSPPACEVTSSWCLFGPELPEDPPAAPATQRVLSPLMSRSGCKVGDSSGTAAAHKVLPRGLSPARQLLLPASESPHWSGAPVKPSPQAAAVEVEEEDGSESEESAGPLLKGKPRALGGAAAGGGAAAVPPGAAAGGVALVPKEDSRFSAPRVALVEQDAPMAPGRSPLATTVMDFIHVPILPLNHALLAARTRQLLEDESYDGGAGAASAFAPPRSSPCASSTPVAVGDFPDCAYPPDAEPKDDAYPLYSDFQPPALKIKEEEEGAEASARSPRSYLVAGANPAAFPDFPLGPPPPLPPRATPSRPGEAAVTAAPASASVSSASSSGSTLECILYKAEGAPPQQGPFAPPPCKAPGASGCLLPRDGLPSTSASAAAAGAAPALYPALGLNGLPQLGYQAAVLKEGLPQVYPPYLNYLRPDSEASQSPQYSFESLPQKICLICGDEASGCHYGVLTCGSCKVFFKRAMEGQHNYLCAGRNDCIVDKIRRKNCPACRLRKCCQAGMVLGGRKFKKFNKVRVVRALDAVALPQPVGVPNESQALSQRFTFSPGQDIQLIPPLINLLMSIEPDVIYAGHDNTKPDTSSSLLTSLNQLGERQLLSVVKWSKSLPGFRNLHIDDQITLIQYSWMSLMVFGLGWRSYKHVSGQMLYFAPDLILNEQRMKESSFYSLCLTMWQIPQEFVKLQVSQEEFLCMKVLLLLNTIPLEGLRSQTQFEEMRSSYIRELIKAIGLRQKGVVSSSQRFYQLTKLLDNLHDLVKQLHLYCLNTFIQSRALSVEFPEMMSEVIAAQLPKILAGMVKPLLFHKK

[5] = molecular target: Melanocortin receptor 3 (Homo sapiens, UniProt P41968)
[6] = molecular target: Cannabinoid receptor 1 (Homo sapiens, UniProt P21554); format: functional, cell-based
[7] = molecular target: T3, Adenosine receptor A3 (Homo sapiens, UniProt P0DMS8)
T3 sequence (P0DMS8 whole entry): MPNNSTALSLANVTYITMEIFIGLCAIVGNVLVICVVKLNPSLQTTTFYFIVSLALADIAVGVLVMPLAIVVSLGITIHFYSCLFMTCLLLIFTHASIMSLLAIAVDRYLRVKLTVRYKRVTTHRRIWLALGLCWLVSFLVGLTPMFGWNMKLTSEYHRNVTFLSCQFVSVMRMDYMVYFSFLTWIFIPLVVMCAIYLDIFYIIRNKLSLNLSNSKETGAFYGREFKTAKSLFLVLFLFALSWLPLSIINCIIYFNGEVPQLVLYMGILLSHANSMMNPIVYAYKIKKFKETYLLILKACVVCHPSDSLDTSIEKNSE

[8] = molecular target: T4, Adenosine receptor A1 (Homo sapiens, UniProt P30542)
T4 sequence (P30542 whole entry): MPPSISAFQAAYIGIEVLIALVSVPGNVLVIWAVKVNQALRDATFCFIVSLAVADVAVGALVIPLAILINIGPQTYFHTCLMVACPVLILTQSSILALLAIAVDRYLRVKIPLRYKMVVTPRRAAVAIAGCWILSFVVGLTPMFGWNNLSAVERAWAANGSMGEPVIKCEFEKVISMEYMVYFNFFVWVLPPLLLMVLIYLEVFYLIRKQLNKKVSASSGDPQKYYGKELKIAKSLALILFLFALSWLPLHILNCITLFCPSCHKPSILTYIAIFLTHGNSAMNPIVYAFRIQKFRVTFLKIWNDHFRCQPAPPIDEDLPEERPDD

[9] = molecular target: T5, 5-hydroxytryptamine receptor 1A (Homo sapiens, UniProt P08908); format: functional, cell-based
T5 sequence (P08908 whole entry): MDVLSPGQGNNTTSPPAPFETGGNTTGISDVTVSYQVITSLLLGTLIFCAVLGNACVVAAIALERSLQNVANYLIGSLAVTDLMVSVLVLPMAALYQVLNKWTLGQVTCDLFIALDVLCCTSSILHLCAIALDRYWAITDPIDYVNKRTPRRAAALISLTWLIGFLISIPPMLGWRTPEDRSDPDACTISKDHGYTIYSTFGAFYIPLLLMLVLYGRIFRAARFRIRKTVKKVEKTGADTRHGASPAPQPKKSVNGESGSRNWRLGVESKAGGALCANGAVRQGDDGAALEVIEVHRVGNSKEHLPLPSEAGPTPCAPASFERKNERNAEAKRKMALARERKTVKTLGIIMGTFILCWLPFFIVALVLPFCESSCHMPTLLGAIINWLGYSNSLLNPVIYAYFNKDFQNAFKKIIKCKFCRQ

[10] = molecular target: Voltage-dependent L-type calcium channel subunit alpha-1C (Rattus norvegicus, UniProt P22002); format: functional
[11] = molecular target: Vasopressin V2 receptor (Homo sapiens, UniProt P30518)
Note: assay procedure not described here.

Sequence of Melanocortin receptor 3 (P41968 whole entry): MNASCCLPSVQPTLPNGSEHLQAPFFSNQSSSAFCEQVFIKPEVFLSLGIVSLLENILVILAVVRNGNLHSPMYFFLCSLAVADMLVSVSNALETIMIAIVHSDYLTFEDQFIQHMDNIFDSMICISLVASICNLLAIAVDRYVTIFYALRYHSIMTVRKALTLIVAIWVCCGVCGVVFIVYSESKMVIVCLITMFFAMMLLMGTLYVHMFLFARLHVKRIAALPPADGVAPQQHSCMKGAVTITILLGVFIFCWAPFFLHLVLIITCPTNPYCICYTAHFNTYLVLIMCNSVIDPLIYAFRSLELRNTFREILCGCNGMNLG
Sequence of Cannabinoid receptor 1 (P21554 whole entry): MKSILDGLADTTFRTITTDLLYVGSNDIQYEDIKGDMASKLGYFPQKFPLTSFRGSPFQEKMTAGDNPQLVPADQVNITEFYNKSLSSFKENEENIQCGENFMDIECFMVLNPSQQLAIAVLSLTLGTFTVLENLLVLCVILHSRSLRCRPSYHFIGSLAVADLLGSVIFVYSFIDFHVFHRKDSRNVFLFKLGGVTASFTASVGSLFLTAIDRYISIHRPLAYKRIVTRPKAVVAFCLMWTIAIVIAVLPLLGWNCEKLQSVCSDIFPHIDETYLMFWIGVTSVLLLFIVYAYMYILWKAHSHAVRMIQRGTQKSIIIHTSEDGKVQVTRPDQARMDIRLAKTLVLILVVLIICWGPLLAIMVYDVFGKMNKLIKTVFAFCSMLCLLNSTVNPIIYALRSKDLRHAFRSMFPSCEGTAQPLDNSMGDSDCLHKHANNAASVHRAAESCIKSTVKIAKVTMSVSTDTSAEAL
Sequence of Sodium-dependent dopamine transporter (Q01959 whole entry): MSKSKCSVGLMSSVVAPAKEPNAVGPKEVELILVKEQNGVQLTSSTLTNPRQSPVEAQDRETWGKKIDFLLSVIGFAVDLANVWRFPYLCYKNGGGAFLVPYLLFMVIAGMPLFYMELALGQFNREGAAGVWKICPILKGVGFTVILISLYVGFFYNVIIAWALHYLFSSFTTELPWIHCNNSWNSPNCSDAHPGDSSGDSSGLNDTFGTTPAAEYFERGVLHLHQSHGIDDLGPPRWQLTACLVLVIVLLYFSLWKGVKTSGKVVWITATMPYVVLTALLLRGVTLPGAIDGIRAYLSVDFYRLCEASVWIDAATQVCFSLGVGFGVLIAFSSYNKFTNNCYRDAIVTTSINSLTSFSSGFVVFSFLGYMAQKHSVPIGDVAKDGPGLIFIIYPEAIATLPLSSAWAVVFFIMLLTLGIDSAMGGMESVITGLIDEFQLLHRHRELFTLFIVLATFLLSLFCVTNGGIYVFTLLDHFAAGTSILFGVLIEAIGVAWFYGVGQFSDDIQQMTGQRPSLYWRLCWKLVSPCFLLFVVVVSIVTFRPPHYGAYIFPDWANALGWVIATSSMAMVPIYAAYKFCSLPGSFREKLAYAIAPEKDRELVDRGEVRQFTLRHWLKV
Sequence of 3',5'-cyclic-AMP phosphodiesterase 4D (Q08499 whole entry): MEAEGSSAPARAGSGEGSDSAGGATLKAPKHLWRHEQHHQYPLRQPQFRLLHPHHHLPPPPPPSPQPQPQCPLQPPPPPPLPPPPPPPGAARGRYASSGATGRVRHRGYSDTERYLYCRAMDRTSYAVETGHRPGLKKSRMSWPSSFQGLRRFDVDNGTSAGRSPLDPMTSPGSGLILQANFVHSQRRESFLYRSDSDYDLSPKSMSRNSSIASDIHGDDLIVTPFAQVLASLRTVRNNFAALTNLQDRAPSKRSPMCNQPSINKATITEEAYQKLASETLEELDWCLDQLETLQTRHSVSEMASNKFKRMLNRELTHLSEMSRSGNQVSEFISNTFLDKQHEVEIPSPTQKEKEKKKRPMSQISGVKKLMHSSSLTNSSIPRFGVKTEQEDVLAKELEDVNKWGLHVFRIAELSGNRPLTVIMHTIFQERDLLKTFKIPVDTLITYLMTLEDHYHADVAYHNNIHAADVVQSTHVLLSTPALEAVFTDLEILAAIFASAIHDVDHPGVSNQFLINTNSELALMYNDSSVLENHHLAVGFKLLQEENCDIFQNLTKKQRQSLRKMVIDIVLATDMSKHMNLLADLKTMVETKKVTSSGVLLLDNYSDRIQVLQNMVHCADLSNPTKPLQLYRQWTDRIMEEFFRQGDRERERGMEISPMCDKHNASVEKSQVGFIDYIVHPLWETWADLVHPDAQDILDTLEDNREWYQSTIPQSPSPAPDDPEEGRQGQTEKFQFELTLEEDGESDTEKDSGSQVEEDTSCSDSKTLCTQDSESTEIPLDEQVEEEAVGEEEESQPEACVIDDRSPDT
Sequence of Voltage-dependent L-type calcium channel subunit alpha-1C (P22002 whole entry): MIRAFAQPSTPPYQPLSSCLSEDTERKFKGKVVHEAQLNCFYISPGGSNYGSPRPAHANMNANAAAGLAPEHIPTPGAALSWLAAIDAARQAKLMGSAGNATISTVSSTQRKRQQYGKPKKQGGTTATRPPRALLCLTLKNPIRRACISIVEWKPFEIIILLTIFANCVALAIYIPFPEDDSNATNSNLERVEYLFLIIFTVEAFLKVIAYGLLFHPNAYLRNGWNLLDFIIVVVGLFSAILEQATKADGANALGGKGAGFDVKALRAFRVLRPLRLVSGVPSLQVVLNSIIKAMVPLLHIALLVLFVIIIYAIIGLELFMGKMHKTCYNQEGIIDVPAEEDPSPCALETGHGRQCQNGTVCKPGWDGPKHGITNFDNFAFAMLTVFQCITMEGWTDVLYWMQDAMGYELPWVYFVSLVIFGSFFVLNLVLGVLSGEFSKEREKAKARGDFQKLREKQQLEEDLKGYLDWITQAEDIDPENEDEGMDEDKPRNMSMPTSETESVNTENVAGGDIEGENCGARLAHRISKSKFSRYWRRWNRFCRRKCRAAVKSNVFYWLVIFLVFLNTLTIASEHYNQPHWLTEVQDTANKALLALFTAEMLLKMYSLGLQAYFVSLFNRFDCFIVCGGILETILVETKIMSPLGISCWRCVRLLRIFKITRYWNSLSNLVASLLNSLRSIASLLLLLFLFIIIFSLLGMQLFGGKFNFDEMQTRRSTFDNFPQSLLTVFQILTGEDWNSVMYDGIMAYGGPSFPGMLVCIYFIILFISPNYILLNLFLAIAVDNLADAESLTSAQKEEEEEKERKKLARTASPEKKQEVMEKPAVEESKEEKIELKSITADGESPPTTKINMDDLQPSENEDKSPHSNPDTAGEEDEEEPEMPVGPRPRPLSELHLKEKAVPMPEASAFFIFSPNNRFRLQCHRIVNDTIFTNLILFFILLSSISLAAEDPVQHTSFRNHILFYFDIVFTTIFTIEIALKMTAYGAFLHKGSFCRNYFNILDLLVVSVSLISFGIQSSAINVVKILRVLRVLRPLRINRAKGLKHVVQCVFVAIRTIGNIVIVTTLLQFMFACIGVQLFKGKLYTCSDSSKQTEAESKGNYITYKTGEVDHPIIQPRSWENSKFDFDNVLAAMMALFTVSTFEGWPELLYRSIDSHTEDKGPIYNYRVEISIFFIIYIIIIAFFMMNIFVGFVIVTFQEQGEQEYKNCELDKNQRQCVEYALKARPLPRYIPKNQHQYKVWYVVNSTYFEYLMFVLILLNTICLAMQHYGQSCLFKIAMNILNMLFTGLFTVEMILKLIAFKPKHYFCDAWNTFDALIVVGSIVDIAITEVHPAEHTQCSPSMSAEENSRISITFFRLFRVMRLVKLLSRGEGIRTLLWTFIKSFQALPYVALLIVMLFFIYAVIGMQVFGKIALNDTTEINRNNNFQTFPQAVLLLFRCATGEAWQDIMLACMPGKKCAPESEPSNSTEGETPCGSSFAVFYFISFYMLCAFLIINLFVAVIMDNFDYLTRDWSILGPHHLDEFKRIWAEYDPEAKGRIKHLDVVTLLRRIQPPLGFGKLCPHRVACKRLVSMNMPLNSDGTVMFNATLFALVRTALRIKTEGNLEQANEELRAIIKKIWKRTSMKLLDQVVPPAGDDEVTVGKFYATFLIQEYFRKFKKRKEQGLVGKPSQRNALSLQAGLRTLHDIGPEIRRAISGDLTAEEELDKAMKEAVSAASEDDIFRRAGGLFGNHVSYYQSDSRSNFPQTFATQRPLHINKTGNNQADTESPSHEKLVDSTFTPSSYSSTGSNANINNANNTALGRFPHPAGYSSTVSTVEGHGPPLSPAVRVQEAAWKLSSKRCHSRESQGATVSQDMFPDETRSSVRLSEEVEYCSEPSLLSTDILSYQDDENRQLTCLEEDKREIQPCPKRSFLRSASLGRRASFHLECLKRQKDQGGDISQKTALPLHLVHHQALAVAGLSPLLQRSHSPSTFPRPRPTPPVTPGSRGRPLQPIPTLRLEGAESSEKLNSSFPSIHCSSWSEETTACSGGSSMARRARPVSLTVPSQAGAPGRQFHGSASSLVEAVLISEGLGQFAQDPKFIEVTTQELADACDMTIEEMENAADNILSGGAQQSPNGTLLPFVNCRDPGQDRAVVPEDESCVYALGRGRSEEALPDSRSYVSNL
Sequence of Vasopressin V2 receptor (P30518 whole entry): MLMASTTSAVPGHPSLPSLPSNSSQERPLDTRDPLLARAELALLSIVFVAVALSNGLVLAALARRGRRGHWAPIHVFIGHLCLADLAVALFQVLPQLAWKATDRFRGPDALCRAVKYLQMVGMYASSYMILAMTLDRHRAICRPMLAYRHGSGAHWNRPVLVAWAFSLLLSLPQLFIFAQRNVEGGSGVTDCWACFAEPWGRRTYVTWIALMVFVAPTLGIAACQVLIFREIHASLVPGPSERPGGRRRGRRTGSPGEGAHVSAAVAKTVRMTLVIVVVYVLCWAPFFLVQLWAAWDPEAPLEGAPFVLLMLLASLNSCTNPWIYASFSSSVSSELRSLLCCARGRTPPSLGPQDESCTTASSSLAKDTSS

Row | Compound | AC50 [1] [µM] | AC50 [2] [µM] | AC50 [3] [µM] | AC50 [4] [µM] | AC50 [5] [µM] | AC50 [6] [µM] | AC50 [7] [µM] | AC50 [8] [µM] | AC50 [9] [µM] | AC50 [10] [µM] | AC50 [11] [µM]
1 | N=C(N)NCCCCCCC(=O)NC(O)C(=O)NCCCCNCCCN (stereo not given) | > 30 | > 30 | > 30 | > 30 | > 30 | > 30 | > 30 | > 30 | > 30 | > 30 | > 30
2 | C=C[C@@]1(C)CC(=O)[C@]2(O)[C@@]3(C)[C@@H](O)CCC(C)(C)[C@@H]3[C@H](OC(=O)CCN(C)C)[C@H](OC(C)=O)[C@@]2(C)O1 | > 30 | > 30 | > 30 | > 30 | > 30 | > 30 | > 30 | > 30 | > 30 | > 30 | > 30
3 | CC(=O)OCC(=O)[C@@]1(O)CC[C@H]2[C@@H]3CCC4=CC(=O)CC[C@]4(C)C3=CC[C@@]21C [ANECORTAVE ACETATE] | > 10 | > 30 | > 10 | > 30 | > 10 | > 30 | > 10 | > 10 | > 10 | > 10 | > 10
4 | O=C(CCCN1CCC(n2c(O)nc3ccccc32)CC1)c1ccc(F)cc1 [BENPERIDOL] | 11 | > 30 | 19.2 | > 30 | > 30 | > 30 | > 30 | > 30 | > 30 | > 30 | > 30
5 | CCN(CC)C(=O)C1CN2CCc3cc(OC)c(OC)cc3C2CC1OC(C)=O (stereo not given) [BENZQUINAMIDE] | > 30 | > 30 | 0.735 | > 30 | > 30 | > 30 | > 30 | > 30 | > 30 | > 10 | > 30
6 | CCC(=O)OCC(=O)[C@@]1(OC(=O)CC)[C@@H](C)C[C@H]2[C@@H]3CCC4=CC(=O)C=C[C@]4(C)[C@@]3(F)[C@@H](O)C[C@@]21C [BETAMETHASONE DIPROPIONATE] | > 30 | > 30 | > 30 | 0.3 | > 30 | > 30 | 24 | > 30 | > 30 | > 30 | > 30
7 | COc1cc(OC)c(C(=O)CCCN2CCCC2)c(OC)c1 [BUFLOMEDIL] | > 30 | > 30 | 6.1 | > 30 | > 30 | > 30 | > 30 | > 30 | > 30 | > 30 | > 30
8 | CCOC(=O)NNc1ccc(N(CC)CC(C)O)nn1 (stereo not given) [CADRALAZINE] | > 30 | > 30 | > 30 | > 30 | > 30 | > 30 | > 30 | > 30 | > 30 | > 30 | > 30
9 | CC(C)(C)NCC(O)c1cc(Cl)c(N)c(Cl)c1 (stereo not given) [CLENBUTEROL] | 27.1 | > 30 | > 30 | > 30 | > 30 | > 30 | > 30 | > 30 | 3.02 | > 30 | > 30
10 | CCC(C)(Oc1ccc(C2(c3ccc(OC(C)(CC)C(=O)O)cc3)CCCCC2)cc1)C(=O)O (stereo not given) [CLINOFIBRATE] | > 30 | > 30 | > 30 | > 30 | > 30 | > 30 | 20 | > 30 | > 30 | > 30 | > 30
11 | CCCCC[C@H](O)/C=C/[C@H]1[C@H](O)CC(=O)[C@@H]1C/C=C\CCCC(=O)O [DINOPROSTONE] | > 30 | 11 | > 30 | > 30 | > 30 | > 30 | > 30 | > 30 | > 30 | > 30 | > 30
12 | CC(C)c1cc2c(cc1S(=O)(=O)O)[C@@]1(C)CCC[C@@](C)(C(=O)O)[C@@H]1CC2 [ECABET] | > 30 | > 30 | > 30 | > 30 | > 30 | > 30 | > 30 | > 30 | > 30 | > 30 | > 30
13 | CCCN(CC)C(CC)C(=O)Nc1c(C)cccc1C (stereo not given) [ETIDOCAINE] | > 30 | > 30 | > 30 | > 30 | > 30 | > 30 | > 30 | > 30 | > 30 | > 30 | > 30
14 | Nc1ccn([C@@H]2O[C@H](CO)[C@@H](O)C2(F)F)c(=O)n1 [GEMCITABINE] | > 30 | 16 | > 10 | > 30 | > 30 | > 30 | > 30 | > 30 | > 10 | > 10 | > 30
15 | C#C[C@]1(O)CC[C@H]2[C@@H]3CCC4=CC(=O)CCC4=C3C=C[C@@]21CC [GESTRINONE] | 25 | 4.1 | 11 | 0.1 | > 30 | > 30 | 22 | > 30 | > 30 | > 30 | > 30
